This note sets out measurements from article PMC7194175 (Nature plants, 2019).

For one test, the target named is T1, CYP72A15 (Arabidopsis thaliana, UniProt Q9LUC5).
T1 sequence (Q9LUC5 1-512): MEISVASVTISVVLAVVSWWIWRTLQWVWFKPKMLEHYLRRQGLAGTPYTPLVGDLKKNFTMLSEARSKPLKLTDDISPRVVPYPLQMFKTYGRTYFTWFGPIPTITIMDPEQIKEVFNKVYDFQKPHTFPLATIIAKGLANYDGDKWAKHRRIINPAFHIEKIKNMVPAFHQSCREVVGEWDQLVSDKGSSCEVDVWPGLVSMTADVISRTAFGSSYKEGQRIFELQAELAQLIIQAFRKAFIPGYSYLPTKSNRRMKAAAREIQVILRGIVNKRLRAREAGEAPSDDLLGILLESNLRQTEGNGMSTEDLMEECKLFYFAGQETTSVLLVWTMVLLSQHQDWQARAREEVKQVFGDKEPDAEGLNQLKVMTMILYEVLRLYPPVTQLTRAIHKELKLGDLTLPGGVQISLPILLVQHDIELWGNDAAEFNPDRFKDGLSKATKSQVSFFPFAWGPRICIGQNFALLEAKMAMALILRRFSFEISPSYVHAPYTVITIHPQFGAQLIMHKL
Briefly: feeding of recombinant WAT11 yeast culture, GC-MS of products. The test is classed as cell-based. The following applies: AtCPR1 co-expressed; 30 °C, 16 h.

The target in the next test is T2, CYP72A9 (Arabidopsis thaliana, UniProt F4IW82).
T2 sequence (F4IW82 1-508): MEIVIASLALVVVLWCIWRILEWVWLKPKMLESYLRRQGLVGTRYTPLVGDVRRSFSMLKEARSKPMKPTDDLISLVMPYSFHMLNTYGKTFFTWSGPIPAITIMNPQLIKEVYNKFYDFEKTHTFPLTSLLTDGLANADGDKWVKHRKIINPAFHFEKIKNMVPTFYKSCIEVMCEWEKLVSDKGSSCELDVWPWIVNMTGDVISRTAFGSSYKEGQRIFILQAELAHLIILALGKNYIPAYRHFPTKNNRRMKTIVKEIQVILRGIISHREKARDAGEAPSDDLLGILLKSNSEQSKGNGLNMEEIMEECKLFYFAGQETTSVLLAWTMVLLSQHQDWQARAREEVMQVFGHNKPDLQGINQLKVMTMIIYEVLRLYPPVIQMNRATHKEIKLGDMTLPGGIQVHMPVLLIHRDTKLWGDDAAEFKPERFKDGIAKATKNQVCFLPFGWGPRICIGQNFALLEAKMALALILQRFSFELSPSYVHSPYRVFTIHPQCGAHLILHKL
Described as above. The test is classed as cell-based. The following applies: AtCPR1 co-expressed, 30 °C, 16 h.

Each structure is given as a SMILES string.

In the case of `C=C1C[C@]23C[C@H]1CC[C@H]2[C@]1(C)CCC[C@@](C)(C(=O)O)[C@H]1[C@@H]3C(=O)O` [GA12], the “feeding of recombinant WAT11 yeast culture, GC-MS of products” value at CYP72A15 was “utilized ent-kaurenoic acid, GA12 and GA9 as substrates rather than GA4”; on CYP72A9 (13-hydroxylation to GA53) it was “hydroxylating GA4, GA9, and GA12 at C13 position to produce GA1, GA20, and GA53”. In the case of `C=C1C[C@]23C[C@H]1CC[C@H]2[C@@]12CC[C@H](O)[C@@](C)(C(=O)O1)[C@H]2[C@@H]3C(=O)O` [GA4], at CYP72A9 (13-hydroxylation to GA1), the “feeding of recombinant WAT11 yeast culture, GC-MS of products” value is “hydroxylating GA4, GA9, and GA12 at C13 position to produce GA1, GA20, and GA53”.
